Counter-ions that a name gives are not always drawn.
What follows are molecules tested against T1, Human CXCR4 transfected HEK293 cells (Homo sapiens, UniProt P61073) (assay: CXCR4 functional calcium assay (calcium flux FLIPR, antagonism of SDF1 response)). Settings: CXCR4 functional activity, antagonism of SDF1 (EC50 concentration), read-out: CXCR4 fKi.
T1 construct: expressed in transfected cells; host or cells: HEK293
Format: cell-based
Procedure, shortened: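 HEK293 cells stably transfected with human CXCR4 were loaded with 2 μM Fluo-4 AM in HBSS containing 2.5 mM probenecid, 0.1% BSA and 10 mM HEPES at pH 7.4 and 37° C. Compound was added first, then SDF1 at its EC50 concentration, and intracellular calcium fluorescence was followed on a FLIPR. Antagonist dose-response curves were fitted.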

T1 sequence (P61073 whole entry): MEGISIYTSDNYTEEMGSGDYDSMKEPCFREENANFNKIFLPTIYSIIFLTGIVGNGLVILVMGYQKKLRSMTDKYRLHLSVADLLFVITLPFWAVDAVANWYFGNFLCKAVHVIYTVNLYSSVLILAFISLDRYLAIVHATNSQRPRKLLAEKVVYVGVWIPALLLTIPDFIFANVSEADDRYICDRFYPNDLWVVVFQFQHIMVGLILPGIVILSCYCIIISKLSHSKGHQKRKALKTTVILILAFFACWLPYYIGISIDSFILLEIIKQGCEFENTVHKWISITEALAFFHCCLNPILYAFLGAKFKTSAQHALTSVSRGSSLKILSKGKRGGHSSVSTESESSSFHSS

SMILES	Ki [nM]
c1cc(-c2ncc(C3CC3)[nH]2)nc(N2CCCN(C3CCC(N4CCCC4)CC3)CC2)c1 (stereo not drawn) [Example 255, 1-[6-(4-Cyclopropyl-1H-imidazol-2-yl)pyridin-2-yl]-4-[4-(pyrrolidin-1-yl)cyclohexyl]-1,4-diazepane]	100 to 500
CC(C)N1CCC(N2CCCN(c3cccc(-c4nc5ccc(C(F)(F)F)cc5[nH]4)n3)CC2)CC1 [Example 144, 2-(6-{4-[1-(Propan-2-yl)piperidin-4-yl]-1,4-diazepan-1-yl}pyridine-2-yl)-6-(trifluoromethyl)-1H-1,3-benzodiazole]	100 to 500
CC(C)N1CCC(NC2CCN(c3cccc(C(=O)Nc4ccncc4)n3)CC2)CC1 [Example 249, 6-(4-{[1-(Propan-2-yl)piperidin-4-yl]amino}piperidin-1-yl)-N-(pyridin-4-yl)pyridine-2-carboxamide]	100 to 500
Clc1ccccc1CN1CCC(N2CCCN(c3nccs3)CC2)CC1 [Example 267, 1-{1-[(2-Chlorophenyl)methyl]piperidin-4-yl}-4-(1,3-thiazol-2-yl)-1,4-diazepane]	100 to 500
CC(C(F)F)N1CCC(N2CCCN(c3cccc(C(=O)NCC4CC4)n3)CC2)CC1 (stereo not drawn) [Example 68, N-(Cyclopropylmethyl)-6-{4-[1-(1,1-difluoropropan-2-yl)piperidin-4-yl]-1,4-diazepan-1-yl}pyridine-2-carboxamide]	100 to 500
CC(C)N1CCC(N2CCCN(c3cccc(-c4cc5ccc(C#N)cc5[nH]4)n3)CC2)CC1 [Example 103, 2-(6-{4-[1-(Propan-2-yl)piperidin-4-yl]-1,4-diazepan-1-yl}pyridine-2-yl)-1H-indole-6-carbonitrile]	100 to 500
CC(C)N1CCC(N2CCCN(c3cccc(C(=O)NCCC#N)n3)CC2)CC1 [Example 13, N-(2-Cyanoethyl)-6-{4-[1-(propan-2-yl)piperidin-4-yl]-1,4-diazepan-1-yl}pyridine-2-carboxamide]	100 to 500
CC(C)N1CCC(N2CCCN(c3cccc(-c4noc(C5CC5)n4)n3)CC2)CC1 [Example 161, 1-[6-(5-Cyclopropyl-1,2,4-oxadiazol-3-yl)pyridine-2-yl]-4-[1-(propan-2-yl)piperidin-4-yl]-1,4-diazepane]	100 to 500
CC(C)(C)c1cnc(-c2cccc(N3CCCN(C4CCN(C(C)(C)C)CC4)CC3)n2)[nH]1 [Example 117, 1-[6-(4-tert-Butyl-1H-imidazol-2-yl)pyridine-2-yl]-4-(1-tert-butylpiperidin-4-yl)-1,4-diazepane]	100 to 500
O=C(NCc1cocn1)c1cccc(N2CCCN(C3CCN(Cc4ccccc4Cl)CC3)CC2)n1 [Example 58, 6-(4-{1-[(2-Chlorophenyl)methyl]piperidin-4-yl}-1,4-diazepan-1-yl)-N-(1,3-oxazol-4-ylmethyl)pyridine-2-carboxamide]	100 to 500
CC(C)N1CCC(N2CCCN(c3cccc(C(=O)NCC(F)F)n3)CC2)CC1 [Example 9, N-(2,2-Difluoroethyl)-6-{4-[1-(propan-2-yl)piperidin-4-yl]-1,4-diazepan-1-yl}pyridine-2-carboxamide]	100 to 500
N#Cc1cccc(N2CCCN(C3CCN(Cc4ccccc4Cl)CC3)CC2)n1 [Example 259, 6-(4-{1-[(2-Chlorophenyl)methyl]piperidin-4-yl}-1,4-diazepan-1-yl)pyridine-2-carbonitrile]	500 to 1000
CC(C)N1CCC(N2CCCN(c3cccc(-c4noc(C(C)(C)C)n4)n3)CC2)CC1 [Example 159, 1-[6-(5-tert-Butyl-1,2,4-oxadiazol-3-yl)pyridine-2-yl]-4-[1-(propan-2-yl)piperidin-4-yl]-1,4-diazepane]	500 to 1000
Clc1ccccc1CN1CCC(N2CCCN(c3ccccn3)CC2)CC1 [Example 261, 1-{1-[(2-Chlorophenyl)methyl]piperidin-4-yl}-4-(pyridin-2-yl)-1,4-diazepane]	100 to 500
CC(C)N1CCC(N2CCCN(c3cccc(C(=O)N[C@H]4CCOC4)n3)CC2)CC1 [Example 18, N-[(3S)-Oxolan-3-yl]-6-{4-[1-(propan-2-yl)piperidin-4-yl]-1,4-diazepan-1-yl}pyridine-2-carboxamide]	100 to 500
CCc1nc(-c2cccc(N3CCCN(C4CCN(C(C)C)CC4)CC3)n2)no1 [Example 155, 1-[6-(5-Ethyl-1,2,4-oxadiazol-3-yl)pyridine-2-yl]-4-[1-(propan-2-yl)piperidin-4-yl]-1,4-diazepane trihydrochloride]	100 to 500
Cc1cc(C(=O)NCC2CC2)nc(N2CCCN(C3CCN(Cc4ccccc4Cl)CC3)CC2)c1 [Example 268, 6-(4-{1-[(2-Chlorophenyl)methyl]piperidin-4-yl}-1,4-diazepan-1-yl)-N-(cyclopropylmethyl)-4-methylpyridine-2-carboxamide]	100 to 500
CC(C)c1nc(-c2cccc(N3CCCN(C4CCN(C(C)C)CC4)CC3)n2)no1 [Example 158, 1-{6-[5-(Propan-2-yl)-1,2,4-oxadiazol-3-yl]pyridine-2-yl}-4-[1-(propan-2-yl)piperidin-4-yl]-1,4-diazepane]	500 to 1000
CC(C)CNC(=O)c1cccc(N2CCCN(C3CCN(C(C)C)CC3)CC2)n1 [Example 6, N-(2-Methylpropyl)-6-{4-[1-(propan-2-yl)piperidin-4-yl]-1,4-diazepan-1-yl}pyridine-2-carboxamide]	100 to 500
c1cc(NCCNC2CCN(C3CCCC3)C2)nc(-c2ncc(C3CC3)[nH]2)c1 (stereo not drawn) [Example 233, N-{2-[(1-Cyclopentylpyrrolidin-3-yl)amino]ethyl}-6-(5-cyclopropyl-1H-imidazol-2-yl)pyridin-2-amine]	500 to 1000
CC(C)N1CCC(N2CCCN(c3cccc(-c4ncc(C5CC5)[nH]4)n3)CC2)C(F)C1 (stereo not drawn) [Example 212, 1-[6-(4-Cyclopropyl-1H-imidazol-2-yl)pyridin-2-yl]-4-[3-fluoro-1-(propan-2-yl)piperidin-4-yl]-1,4-diazepane]	100 to 500
CCCc1cnc(-c2cccc(N3CCCN(C4CCN(C(C)C)CC4)CC3)n2)[nH]1 [Example 109, 1-[1-(Propan-2-yl)piperidin-4-yl]-4-[6-(4-propyl-1H-imidazol-2-yl)pyridine-2-yl]-1,4-diazepane]	20 to 100
c1cc(NCCNC2CCCN(C3CCCC3)C2)nc(-c2ncc(C3CC3)[nH]2)c1 (stereo not drawn) [Example 230, 1-Cyclopentyl-N-(2-{[6-(5-cyclopropyl-1H-imidazol-2-yl)pyridin-2-yl]amino}ethyl)piperidin-3-amine]	100 to 500

The next lines start with the values.

Ki [nM]	SMILES
20 to 100	COc1ccc2nc(-c3cccc(N4CCCN(C5CCN(C(C)C)CC5)CC4)n3)[nH]c2c1 [Example 150, 6-Methoxy-2-(6-{4-[1-(propan-2-yl)piperidin-4-yl]-1,4-diazepan-1-yl}pyridine-2-yl)-1H-1,3-benzodiazole]
< 20	[2H]C1([2H])CCN(C2CCN([C@H](C)CC)CC2)CCN1c1cccc(C(=O)Nc2ccncc2)n1 [Example 176, 6-(4-{1-[(2R)-Butan-2-yl]piperidin-4-yl}-7,7-dihydrogenio-1,4-diazepan-1-yl)-N-(pyridine-4-yl)pyridine-2-carboxamide]
20 to 100	Cc1ccc2nc(-c3cccc(N4CCCN(C5CCN(C(C)C)CC5)CC4)n3)[nH]c2c1 [Example 148, 6-Methyl-2-(6-{4-[1-(propan-2-yl)piperidin-4-yl]-1,4-diazepan-1-yl}pyridine-2-yl)-1H-1,3-benzodiazole]
20 to 100	CC(C)N1CCC(N2CCCN(c3cccc(-c4noc(-c5ccccc5)n4)n3)CC2)CC1 [Example 164, 1-[6-(5-Phenyl-1,2,4-oxadiazol-3-yl)pyridine-2-yl]-4-[1-(propan-2-yl)piperidin-4-yl]-1,4-diazepane]
20 to 100	CC(C)N1CCC(N2CCCN(c3cccc(-c4cc5ccccc5[nH]4)n3)CC2)CC1 [Example 100, 2-(6-{4-[1-(Propan-2-yl)piperidin-4-yl]-1,4-diazepan-1-yl}pyridine-2-yl)-1H-indole]
20 to 100	O=C(NCC1CC1)c1cccc(N2CCCN(C3CCN(Cc4ccccc4Cl)CC3)CC2)n1 [Example 132, 6-(4-{1-[(2-Chlorophenyl)methyl]piperidin-4-yl}-1,4-diazepan-1-yl)-N-(cyclopropylmethyl)pyridine-2-carboxamide]
< 20	CC(C)N1CCC(N2CCCN(c3cccc(C(=O)Nc4ccncc4)n3)CC2C)CC1 (stereo not drawn) [Example 193, 6-{3-Methyl-4-[1-(propan-2-yl)piperidin-4-yl]-1,4-diazepan-1-yl}-N-(pyridin-4-yl)pyridine-2-carboxamide]
20 to 100	CC(C)N1CCC(N2CCCN(c3cccc(C(=O)NCc4cocn4)n3)CC2)CC1 [Example 41, N-(1,3-Oxazol-4-ylmethyl)-6-{4-[1-(propan-2-yl)piperidin-4-yl]-1,4-diazepan-1-yl}pyridine-2-carboxamide]
20 to 100	O=C(Nc1cccnc1)c1cccc(N2CCCN(C3CCN(Cc4ccccc4Cl)CC3)CC2)n1 [Example 53]
20 to 100	CC(C)N1CCC(N2CCCN(c3cccc(C(=O)NCc4cncs4)n3)CC2)CC1 [Example 43, 6-{4-[1-(Propan-2-yl)piperidin-4-yl]-1,4-diazepan-1-yl}-N-(1,3-thiazol-5-ylmethyl)pyridine-2-carboxamide]
20 to 100	O=C(NCC1CC1)c1cccc(N2CCCN(C3CCN(C4CCCC4)CC3)CC2)n1 [Example 72, 6-[4-(1-Cyclopentylpiperidin-4-yl)-1,4-diazepan-1-yl]-N-(cyclopropylmethyl)pyridine-2-carboxamide]
< 20	CC(C)(C)N1CCC(N2CCCN(c3cccc(C(=O)Nc4ccncc4)n3)CC2)CC1 [Example 80, 6-[4-(1-tert-Butylpiperidin-4-yl)-1,4-diazepan-1-yl]-N-(pyridine-4-yl)pyridine-2-carboxamide]
< 20	CC(C)N1CCC(N2CCCN(c3cccc(C(=O)NCc4ccco4)n3)CC2)CC1 [Example 40, N-(Furan-2-ylmethyl)-6-{4-[1-(propan-2-yl)piperidin-4-yl]-1,4-diazepan-1-yl}pyridine-2-carboxamide]

Source: patent US10995091B2 (Proximagen, LLC, priority 2010, dated 2021)
